# Values quoted from earlier work as cited in PMC4369286 (Chemistry Central Journal, 2015).
# Where two headings read alike, the source gives them in different places.
# How the values were obtained:
# [1] = value of the pure solvent
# [2] = for E (excess molar refractivity descriptor): known values used for comparison
# [3] = in several of the organic solvents studied
# [4] = parameters: method as in earlier work; details: direct partition, monomer
# [5] = known value given as comparison
compound,measurement,setting,value
C1CCCCC1 [cyclohexane],"Kamlet-Taft solvent hydrogen bond basicity, β",[1],0.00
ClC(Cl)Cl [trichloromethane],"Kamlet-Taft solvent hydrogen bond basicity, β",[1],0.10
CCOCC [diethyl ether],"Kamlet-Taft solvent hydrogen bond basicity, β",[1],0.47
O=[N+]([O-])c1ccccc1 [nitrobenzene],"Kamlet-Taft solvent hydrogen bond basicity, β",[1],0.30
CO [methanol],"Kamlet-Taft solvent hydrogen bond basicity, β",[1],0.66
CC(C)=O [propanone],"Kamlet-Taft solvent hydrogen bond basicity, β",[1],0.43
CCOC(=O)/C=C/c1ccccc1 [ethyl cinnamate],E (excess molar refractivity descriptor),[2],1.102
CCCOC(C)=O [propyl acetate],"Kamlet-Taft solvent hydrogen bond basicity, β",[1],0.40
CC(=O)Oc1ccccc1C(=O)O [aspirin],solubility in organic solvents,[3],exceeding 1 molar
CC#N [acetonitrile],"Kamlet-Taft solvent hydrogen bond basicity, β",[1],0.40
CCOC(=O)c1ccccc1 [ethyl benzoate],E (excess molar refractivity descriptor),[2],0.689
O=C(O)/C=C/c1ccccc1 [trans-cinnamic acid],Log Ps (water-solvent partition coefficient),[4]; solvent Cyclohexane,−0.25
same,Log Ps (water-solvent partition coefficient),"[4]; solvent Diethyl ether, wet",1.92
same,Log Ps (water-solvent partition coefficient),"[4]; solvent Octan-1-ol, wet",2.13
same,Log Ps (water-solvent partition coefficient),[4]; solvent Tetrachloromethane,0.40
same,Log Ps (water-solvent partition coefficient),[4]; solvent Trichloromethane,1.20
OCC(F)(F)F [trifluoroethanol],"Kamlet-Taft solvent hydrogen bond basicity, β",[1],0.00
"O=C(O)c1ccccc1 [Benzoic acid, benzoic acid]",S (dipolarity/polarity descriptor),[2]; [5],0.90
same,V (McGowan characteristic volume descriptor),[2]; [5],0.9317
same,E (excess molar refractivity descriptor),[2],0.73
same,E (excess molar refractivity descriptor),[2]; listed as benzoic acid,0.730
same,Kdimer (dimerization constant),in benzene,590
same,Kdimer (dimerization constant),in cyclohexane,11300
same,Kdimer (dimerization constant),in tetrachloromethane,5010
